Reference: patent US11111235B2 (Denali Therapeutics Inc., priority 2016, dated 2021)

Tests used:
LRRK2 G2019S = LRRK2 G2019S (Homo sapiens (Human), UniProt Q5S007, G2019S); test: LRRK2 G2019S TR-FRET biochemical assay (LRRKtide substrate); details: 134 μM ATP
Procedure: Materials: • LRRK2 G2019S enzyme • Substrate (LRRKtide) • ATP • TR-FRET dilution buffer • pLRRKtide antibody • 384-well assay plate • DMSO
Enzyme Reaction Conditions • 50 mM Tris pH 7.5, 10 mM MgCl2, 1 mM EGTA, 0.01% Brij-35.2 mM DTT • 5 nM LRRK2 • 134 μM ATP • 60 minute reaction time • 23° C. reaction temperature • 10 μL total reaction volume
Detection Reaction Conditions • 1× TR-FRET dilution buffer • 10 mM EDTA • 2 nM antibody • 23° C. reaction temperature • 10 μL total reaction volume
Compounds were prepared by initially diluting to 1 mM with DMSO. 35 μL of reference compound solution, 35 μL of test compound solution, and 35 μL HPE were successively added to the source plate (384-well assay plate, Labcyte). The plates were centrifuged at 2500 rpm for 1 minute and sealed in foil. POD was used to perform a 3.162 fold serial dilution and 100 nL of reference compound solution, test compound solution, HPE and ZPE were transferred to assay plates. The assay plate was centrifuged at 2500 rpm for 1 minute, and sealed with foil.
To perform the enzyme reaction, 5 μL of LRRKtide substrate and kinase mixture in assay buffer was added to all wells of the assay plate. The plate was centrifuged to concentrate the mixture at the bottom of the wells. The assay plate was incubated at 23° C. for 20 minutes. Following incubation, 5 μL of 2×ATP in assay buffer was added to each well, and plates were centrifuged to concentrate the mixture at the bottom of the wells. The plate was incubated at 23° C. for 60 minutes.
To perform the detection of the reaction, EDTA completely mixed in TR-FRET dilution buffer was added to antibody reagent. 10 μL of detection reagent was added to all wells of each well of the assay plate and the plate was centrifuged to concentrate the mixture at the bottom of the wells. The plate was then incubated at 23° C. for 60 minutes. Plates were read on Perkin Elmer Envision 2104 instrument in TR-FRET mode using 340 nm excitation filter, 520 nm fluorescence emission filter, and 490 or 495 nm terbium emission filter.

[1] = Metabolic stability in human liver microsomes; format: in vitro ADME; details: projected human hepatic clearance scaled from microsomal Clint, well-stirred model
Procedure: Metabolic stability of compounds was evaluated in human liver microsomes (from Corning or XenoTech, LLC) using a 96-well plate assay format. Compounds were incubated at 37° C. at […] final concentration in the microsomal matrix (0.5 mg/mL total protein) in the presence or absence of NADPH cofactor. An NADPH regenerating system, comprised of NADP, MgCl2, isocitric acid, and isocitrate dehydrogenase, was used in the assay. Enzymatic reactions were conducted for 0, 5, 10, 20, 30, or 60 min before termination by addition of acetonitrile containing tolbutamide and labetalol internal standards (100 ng/mL). After shaking for 10 min, plates were subjected to centrifugation (4000 rpm at 4° C.) for 20 min and supernatants were mixed 1:3 with HPLC grade water. Samples were analyzed by LC-MS/MS using appropriate MRM transitions for each analyte and internal standard (IS). Analyte/IS peak area ratios were used to determine percent compound remaining at each time point. Intrinsic clearance (Clint; expressed as mL·min^−1·mg^−1) was calculated from the first order elimination constant (k, min^−1) of test article decay and the volume of the incubation. These values were scaled to intrinsic organ clearance (Clint) using human specific scaling factors (48.8 mg microsomal protein per g liver; 25.7 g liver per kg body weight). Organ Clint was subsequently converted to hepatic clearance (CLhep, mL·min-1·kg-1) using the well-stirred model of hepatic elimination, where Qh is human hepatic blood flow (20.7 mL·min-1·kg-1).
CLhep is the projected human clearance in the liver based on the above in vitro assay. A lower value is indicative of less compound being removed by the liver.

Sequence of LRRK2 G2019S (Q5S007 whole entry G2019S): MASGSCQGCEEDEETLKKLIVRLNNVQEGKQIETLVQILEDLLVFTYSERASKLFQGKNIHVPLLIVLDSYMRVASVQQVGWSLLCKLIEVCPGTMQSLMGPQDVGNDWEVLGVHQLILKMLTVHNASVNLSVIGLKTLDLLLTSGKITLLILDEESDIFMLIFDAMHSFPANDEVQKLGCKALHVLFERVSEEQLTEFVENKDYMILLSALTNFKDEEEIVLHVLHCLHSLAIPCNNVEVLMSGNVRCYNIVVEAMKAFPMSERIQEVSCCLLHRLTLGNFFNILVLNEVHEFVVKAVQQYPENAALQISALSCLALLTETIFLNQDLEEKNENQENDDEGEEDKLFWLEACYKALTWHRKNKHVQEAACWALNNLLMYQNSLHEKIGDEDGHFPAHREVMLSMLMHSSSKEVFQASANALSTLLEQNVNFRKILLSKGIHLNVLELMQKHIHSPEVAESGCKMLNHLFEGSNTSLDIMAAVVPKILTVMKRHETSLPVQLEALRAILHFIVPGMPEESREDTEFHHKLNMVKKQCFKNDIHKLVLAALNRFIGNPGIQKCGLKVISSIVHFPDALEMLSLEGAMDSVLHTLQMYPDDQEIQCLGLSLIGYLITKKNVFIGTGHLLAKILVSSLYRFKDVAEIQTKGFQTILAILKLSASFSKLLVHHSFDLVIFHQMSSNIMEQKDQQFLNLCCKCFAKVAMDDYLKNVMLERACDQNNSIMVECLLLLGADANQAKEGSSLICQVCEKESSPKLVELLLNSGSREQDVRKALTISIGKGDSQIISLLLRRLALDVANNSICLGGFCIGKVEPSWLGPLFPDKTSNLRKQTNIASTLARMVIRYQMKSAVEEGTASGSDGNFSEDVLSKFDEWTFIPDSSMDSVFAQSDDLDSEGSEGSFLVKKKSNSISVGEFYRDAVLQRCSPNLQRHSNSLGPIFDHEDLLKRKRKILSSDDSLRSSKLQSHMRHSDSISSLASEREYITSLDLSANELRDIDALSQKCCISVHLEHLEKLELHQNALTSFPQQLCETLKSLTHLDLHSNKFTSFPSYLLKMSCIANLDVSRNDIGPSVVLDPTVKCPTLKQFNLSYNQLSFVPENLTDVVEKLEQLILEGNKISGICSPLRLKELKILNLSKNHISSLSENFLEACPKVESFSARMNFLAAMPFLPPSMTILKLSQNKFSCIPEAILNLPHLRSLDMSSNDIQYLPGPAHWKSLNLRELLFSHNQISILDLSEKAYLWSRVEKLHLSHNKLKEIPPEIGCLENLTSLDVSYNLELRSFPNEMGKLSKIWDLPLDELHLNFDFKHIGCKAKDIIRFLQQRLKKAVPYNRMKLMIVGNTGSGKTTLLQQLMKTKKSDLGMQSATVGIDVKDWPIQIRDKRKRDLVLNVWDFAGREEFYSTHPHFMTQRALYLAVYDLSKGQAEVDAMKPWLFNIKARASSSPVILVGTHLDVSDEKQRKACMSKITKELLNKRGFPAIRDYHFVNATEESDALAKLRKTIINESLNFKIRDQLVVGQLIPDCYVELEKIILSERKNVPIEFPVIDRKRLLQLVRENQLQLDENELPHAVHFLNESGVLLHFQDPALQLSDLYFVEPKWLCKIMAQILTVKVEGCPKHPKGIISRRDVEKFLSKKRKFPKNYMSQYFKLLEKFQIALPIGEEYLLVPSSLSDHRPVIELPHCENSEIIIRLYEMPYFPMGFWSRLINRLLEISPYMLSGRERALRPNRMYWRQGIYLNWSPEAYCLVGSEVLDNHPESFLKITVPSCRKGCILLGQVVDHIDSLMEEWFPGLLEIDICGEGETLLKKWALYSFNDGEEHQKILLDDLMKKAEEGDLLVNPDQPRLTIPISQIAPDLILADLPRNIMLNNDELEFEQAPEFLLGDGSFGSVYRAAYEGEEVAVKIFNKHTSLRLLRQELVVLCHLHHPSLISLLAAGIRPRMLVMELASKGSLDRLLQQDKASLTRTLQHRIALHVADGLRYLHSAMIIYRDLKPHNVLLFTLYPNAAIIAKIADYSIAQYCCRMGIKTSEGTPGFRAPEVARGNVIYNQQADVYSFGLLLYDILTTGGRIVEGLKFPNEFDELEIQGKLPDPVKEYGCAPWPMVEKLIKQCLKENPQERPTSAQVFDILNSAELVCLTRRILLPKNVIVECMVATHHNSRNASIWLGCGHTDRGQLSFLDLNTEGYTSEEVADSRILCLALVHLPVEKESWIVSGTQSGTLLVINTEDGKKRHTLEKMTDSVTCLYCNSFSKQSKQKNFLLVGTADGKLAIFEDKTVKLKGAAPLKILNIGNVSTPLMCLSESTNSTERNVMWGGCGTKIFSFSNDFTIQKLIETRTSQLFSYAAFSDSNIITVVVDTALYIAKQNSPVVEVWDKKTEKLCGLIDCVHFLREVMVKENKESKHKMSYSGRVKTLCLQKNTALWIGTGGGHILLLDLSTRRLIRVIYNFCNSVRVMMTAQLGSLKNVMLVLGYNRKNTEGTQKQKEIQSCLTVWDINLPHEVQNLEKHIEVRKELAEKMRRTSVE

IC50 (LRRK2 G2019S; class symbols) | Human liver microsomes CLhep [1] | IC50 (LRRK2 G2019S) | Compound
< 30 nM |  |  | COc1nc(Nc2cn(C3(C)CCNC3=O)nc2C)ncc1Br (centres unmarked) [Compound 64A]
< 30 nM |  |  | CNc1nc(Nc2cn(C3(C)CCOC3=O)nc2Cl)ncc1C(F)(F)F (centres unmarked) [Compound 99]
< 30 nM |  |  | CCNc1nc(Nc2cn(C3(C)CCOC3=O)nc2C)ncc1C(F)(F)F (centres unmarked) [Compound 100]
< 30 nM |  |  | COc1nc(Nc2cn(C3(C)CCOC3=O)nc2C)ncc1Br (centres unmarked) [Compound 102]
< 30 nM |  |  | Cc1nn(C2(C)CCOC2=O)cc1Nc1ncc(C(F)(F)F)c(C2CC2)n1 (centres unmarked) [Compound 103]
 | 11.59 mL/min/kg | 0.96 nM | CCNc1nc(Nc2cn(C3(C)CCOC3=O)nc2C2CC2)ncc1C(F)(F)F (centres unmarked) [Compound 104]
< 30 nM | 16.508 mL/min/kg | 1.05 nM | CCNc1nc(Nc2cn(C3(C)CCOC3=O)nc2C2CC2)ncc1Br (centres unmarked) [Compound 114]
< 30 nM |  |  | CCNc1nc(Nc2cn(C3(C)CCOC3=O)nc2Cl)ncc1C(F)(F)F (centres unmarked) [Compound 117]
< 30 nM |  |  | CNc1nc(Nc2cn(C3(C)CCOC3=O)nc2C)ncc1C(F)(F)F (centres unmarked) [Compound 119]
 | 11.077 mL/min/kg | 1.22 nM | CCNc1nc(Nc2cc(C3(C)CCOC3=O)nn2C2CC2)ncc1Br (centres unmarked) [Compound 150]
 | 0 mL/min/kg |  | CNc1nc(Nc2cn(C(C)(C)c3ncn(C)n3)nc2C)ncc1C(F)(F)F [Compound 218]

The next lines start with the compound.

Compound | IC50 (LRRK2 G2019S; class symbols) | Human liver microsomes CLhep [1] | IC50 (LRRK2 G2019S)
CCNc1nc(Nc2cn(C3C[C@@H]3C#N)nc2Cl)ncc1C(F)(F)F (single isomer, unassigned) [Compound 206] | < 30 nM |  | 
CCNc1nc(Nc2cn(C3C[C@H]3C#N)nc2Cl)ncc1C(F)(F)F (single isomer, unassigned) [Compound 207] | < 30 nM |  | 
CNc1nc(Nc2cn(C3C[C@@H]3C#N)nc2C2CC2)ncc1C(F)(F)F (single isomer, unassigned) [Compound 208] | < 30 nM |  | 
CNc1nc(Nc2cn(C3C[C@H]3C#N)nc2C2CC2)ncc1C(F)(F)F (single isomer, unassigned) [Compound 209] | < 30 nM |  | 
N#C[C@@H]1CC1n1cc(Nc2ncc(C(F)(F)F)c(NCC(F)F)n2)c(C2CC2)n1 (single isomer, unassigned) [Compound 210] | < 30 nM |  | 
CCNc1nc(Nc2cn(C3C[C@@H]3C#N)nc2C2CC2)ncc1Br (single isomer, unassigned) [Compound 214] | < 30 nM |  | 
CCNc1nc(Nc2cn(C3C[C@H]3C#N)nc2C2CC2)ncc1Br (single isomer, unassigned) [Compound 215] | < 30 nM |  | 
CNc1nc(Nc2cnn(C3CN(C4COC4)CCC3(F)F)c2Cl)ncc1C(F)(F)F (centres unmarked) [Compound 28] | < 30 nM |  | 
CNc1nc(Nc2cnn(C3CCCC3(C)O)c2C)ncc1C(F)(F)F (centres unmarked) [Compound 30] | 30 to 60 nM |  | 
[2H]C([2H])([2H])n1nc(C(C)(C)n2nccn2)cc1Nc1ncc(C(F)(F)F)c(NCC)n1 [Compound 34, N4-ethyl-N2-[1-(^2H3)methyl-3-[2-(2H-1,2,3-triazol-2-yl)propan-2-yl]-1H-pyrazol-5-yl]-5-(trifluoromethyl)pyrimidine-2,4-diamine] |  | 0.75 mL/min/kg | 
CCNc1nc(Nc2cnn3c2CC(C#N)C3)ncc1C(F)(F)F (centres unmarked) [Compound 52A] | < 30 nM |  | 
CCNc1nc(Nc2cnn3c2CC(n2nccn2)C3)ncc1C(F)(F)F (centres unmarked) [Compound 54A] | < 30 nM |  | 
CCNc1nc(Nc2cnn(C3CCCN(CC(F)F)C3)c2C)ncc1C(F)(F)F (centres unmarked) [Compound 116] | < 30 nM |  | 
CNc1nc(Nc2cc(C3(C)CCOC3=O)nn2C2CC2)ncc1C(F)(F)F (centres unmarked) [Compound 155] |  | 5.519 mL/min/kg | 1.95 nM
CCNc1nc(Nc2cc(C3(C)CCn4ncnc43)nn2C2CC2)ncc1C(F)(F)F (centres unmarked) [Compound 172] | < 30 nM | 19.9 mL/min/kg | 1.47 nM
CCNc1nc(Nc2cnn(C3CNCCC3(F)F)c2C)ncc1C(F)(F)F (centres unmarked) [Compound 200] | < 30 nM |  | 
CCN1CCC(F)(F)C(n2ncc(Nc3ncc(C(F)(F)F)c(NC)n3)c2Cl)C1 (centres unmarked) [Compound 202] | < 30 nM |  | 
